Assay results from patent publication US20230278972A1, “SUBSTITUTED HALOALKYL SULFONANILIDE HERBICIDES” (FMC Corporation, priority 2020, published 2023).

Legend:
Type in all cases: in vivo
kochia (Bassia scoparia) = experiment: Test A1 preemergence, kochia
Outline: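 Pre: seeds in loam/sand blend, directed soil spray. Post: potted plants, same soil, 2–10 cm, 1–2 leaf stage. Chemicals in non-phytotoxic solvent + surfactant for both.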

[1] = system: wheat (Triticum aestivum); experiment: Test A1 postemergence, wheat; settings: for Wheat plant response rating: 31 g ai/ha, postemergence; for Plant response rating, Wheat: Postemergence, 125 g ai/ha
Outline: (§1)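 Plants grown in pots of loam/sand mix; preemergence = soil-directed spray on seeded pots, postemergence = spray at 1–2 leaves, height 2–10 cm; test chemicals formulated in non-phytotoxic solvent with surfactant.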

[2] = system: goosegrass (Eleusine indica); experiment: Test A1 postemergence, goosegrass; settings: for Goosegrass plant response rating: 31 g ai/ha, postemergence; for Plant response rating, Goosegrass: Postemergence, 125 g ai/ha
Outline: as §1

[3] = system: ragweed (common ragweed, Ambrosia artemisiifolia); experiment: Test A1 postemergence, ragweed; settings: for Ragweed plant response rating: 31 g ai/ha, postemergence; for Plant response rating, Ragweed: Postemergence, 125 g ai/ha
Outline: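 Herbicidal response was scored on plants treated either preemergence, by directed spray onto soil of a loam–sand blend after sowing, or postemergence on potted plants at the one- to two-leaf stage, 2–10 cm high. Test chemicals were carried in a non-phytotoxic solvent mix with surfactant.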

[4] = 31 g ai/ha, 0 to 100 scale (0 no effect, 100 complete control)
[5] = 125 g ai/ha, 0 to 100 scale, 0 no effect, 100 complete control
[6] = 0 to 100 scale (0 no effect, 100 complete control)
[7] = 0 to 100 scale (0 no effect, 100 complete control), 10 days

| SMILES | Plant response rating, Kochia (kochia (Bassia scoparia); [4]) | Plant response rating, Kochia (kochia (Bassia scoparia); [5]) | Wheat plant response rating [1, 6] | Plant response rating, Wheat ([1]; 0 to 100 scale) | Goosegrass plant response rating [2, 6] | Plant response rating, Goosegrass ([2]; 0 to 100 scale) | Ragweed plant response rating [3, 6] | Plant response rating, Ragweed ([3]; 0 to 100 scale) | Plant response rating, Wheat [1, 7] | Plant response rating, Goosegrass [2, 7] | Plant response rating, Ragweed [3, 7] |
| --- | --- | --- | --- | --- | --- | --- | --- | --- | --- | --- | --- |
| CCc1cc(C)c(N(COC(=O)C(C)(C)C)S(=O)(=O)C(F)(F)F)cc1C1=NOC2CCCC12 (stereo not shown) [Compound 378] | 0 | 20 | 30 | 60 | 0 | 30 | 0 | 30 |  |  |  |
| COC1CCC2(CC1)CCN(c1cc(NS(=O)(=O)C(F)(F)F)c(C)cc1C)C2=O (stereo not shown) [Compound 398] | 40 | 50 | 60 |  | 50 |  | 20 |  | 70 | 90 | 80 |
